Data as given in paper PMC6896172, “Successful Targeting of the Warburg Effect in Prostate Cancer by Glucose-Conjugated 1,4-Naphthoquinones” (Cancers, 2019).

Tests used:
PC-3 cells = test: MTT cytotoxicity assay in PC-3 cells; type: cell-based, human; details: for IC50: Homo sapiens, PC-3, 48 h, 48 h of treatment; for SI [IC50(PNT2) / IC50(PC-3)]: ratio of IC50 in PNT2 cells to IC50 in PC-3 cells, 48 h
Source text: (§1) For general experiments human prostate cancer cell lines PC-3 and DU145 (docetaxel-resistant, androgen-independent, AR-FL(−), AR-V7(−)), 22Rv1 and VCaP (docetaxel-sensitive, androgen-independent, AR-FL(+), AR-V7(+), and LNCaP (docetaxel sensitive, androgen-dependent, AR-FL(+), AR-V7(−) were used. PC-3, 22Rv1, LNCaP cells as well as the human prostate non-cancer cells PNT2 and RWPE-1 were purchased from ATCC (Manassas, VA, USA). VCaP were purchased from ECACC (Salisbury, UK). The human fibroblast cell line MRC-9, the human embryonic kidney cell line HEK 293T, as well as the human umbilical vascular endothelial cell line HUVEC were kindly donated by Prof. Dr. Dr. med. Sonja Loges (University Medical Center Hamburg-Eppendorf, Hamburg, Germany). Cells were cultured according to the manufacturers’ instructions and were recently authenticated by a commercial service (Multiplexion, Heidelberg, Germany). Culture conditions are described in the Supplementary Information.
(§2) MTT (3-(4,5-dimethylthiazol-2-yl)-2,5-diphenyltetrazolium bromide) cytotoxicity assay was used for the evaluation of cytotoxicity of the compounds or their combinations. Experiments were performed as previously described. In brief, 6000 cells/well were seeded in 96-well plate, incubated overnight, and treated with the drugs in 100 µL/well of 10% FBS/RPMI media containing 2 g/L of D-(+)-glucose for 48 h, unless otherwise stated. For 2 h treatment the cells were treated with the drugs for 2 h in the culture media, then the media was exchanged to fresh drug-free media (100 µL/well) containing MTT reagent and the further steps were performed as previously described.
(§3) Table S4. Cytotoxic activity of the synthesized compounds. Cytotoxicity was determined in human prostate cancer PC-3 cells versus human prostate non-cancer
(§4) PNT2 cells after 48 h of treatment, as well as its ratio. IC50 was evaluated using MTT assay. SI–selectivity index. #–the IC50s in both cell lines were >100 µM.
(§5) Anisomycin was used as a reference substance.
(§6) No Formula IC50(PC-3) IC50(PNT2) SI […]

PNT2 cells = test: MTT cytotoxicity assay in PNT2 cells; type: cell-based, human; details: 48 h of treatment
Source text: as §1, §2, §3, §4, §5, §6

MRC-9 cells = test: MTT cytotoxicity assay in MRC-9 cells; type: cell-based; details: Homo sapiens, MRC9, 48 h of treatment, non-cancer
Procedure: (§7) Dr. Dr. med. Sonja Loges (University Medical Center Hamburg-Eppendorf, Hamburg, Germany). Cells were cultured according to the manufacturers’ instructions and were recently authenticated by a commercial service (Multiplexion, Heidelberg, Germany). Culture conditions are described in the Supplementary Information.
as §2

RWPE-1 cells = test: MTT cytotoxicity assay in RWPE-1 cells; type: cell-based; details: Homo sapiens, 48 h of treatment, non-cancer
Procedure: as §7, §2

HEK293 cells = test: MTT cytotoxicity assay in HEK293 cells; type: cell-based; details: Homo sapiens, 48 h of treatment, non-cancer
Procedure: as §7, §2

HUVEC cells = test: MTT cytotoxicity assay in HUVEC cells; type: cell-based; details: Homo sapiens, 48 h of treatment, non-cancer
Procedure: as §7, §2

VCaP cells = test: MTT cytotoxicity assay in VCaP cells; type: cell-based; details: Homo sapiens, 48 h of treatment, cancer
Procedure: as §7, §2

DU145 cells = test: MTT cytotoxicity assay in DU145 cells; type: cell-based; details: Homo sapiens, DU-145, 48 h of treatment, cancer
Procedure: as §7, §2

22Rv1 cells [1] = test: MTT cytotoxicity assay in 22Rv1 cells; type: cell-based, human; details: Homo sapiens
Procedure: as §7, §2

LNCaP cells = test: MTT cytotoxicity assay in LNCaP cells; type: cell-based; details: Homo sapiens, 48 h of treatment, cancer
Procedure: as §7, §2

22Rv1 cells [2] = test: Trypan blue exclusion viability assay; type: cell-based; details: Homo sapiens, 48 h of treatment
Procedure: The in vitro effect of the drugs on cell viability and proliferation was evaluated using trypan blue exclusion assay as described before with minor modifications. In brief, cells (0.2 × 10^6 cells/well) were seeded in 12-well plates, incubated overnight, the media was replaced with fresh media (1 mL/well) and treated with the drugs for 48 h. Cells were harvested by trypsination and the viability was measured using trypan blue staining and Beckman Coulter Vi-CELL (Beckman Coulter, Krefeld, Germany).

22Rv1 cells [3] = test: Colony formation assay; type: cell-based, human; details: 22Rv1 cells treated with non-cytotoxic concentrations for 48 h
Procedure: Colony formation assays were performed as described before. In brief, cells were treated with the drugs for 48 h and then 100 alive cells were plated into each well of 6-well plates and incubated for 10 days. Surviving colonies were fixed, stained with Giemsa solution and counted.

22Rv1 cells [4] = test: Western blotting of treated cells; type: cell-based, human; details: for AR-FL and AR-V7 expression: 48 h treatment; for LC3B-II and SQSTM1 levels (autophagy markers): pre-cytotoxic and cytotoxic concentrations, 48 h
Procedure: Preparation of protein extracts for western blotting was performed as described previously. In brief, for western blotting, 1 × 10^6 cells/well were seeded in Petri dishes (ø 6 cm TC Dish (Sarstedt, Numbrecht, Germany) in 5 mL/dish), incubated overnight and treated with drugs in 5 mL/dish for an indicated time. Cells were harvested using a cell scraper, pelleted, and resuspended in the lysis buffer containing protease and phosphatase inhibitors. Further sample preparation and western blotting were performed as previously described with slight modifications. Relative optical density of the detected bands was quantified with Quantity One 4.6 software (Bio-Rad, Hercules, CA, USA). The primary and secondary antibodies used are listed in the Supplementary Information.

[5] = 22Rv1, 48 h of treatment, cancer, read-out: IC50 (22Rv1)
[6] = 22Rv1 cells, 2 h treatment, read-out: IC50 after 2 h of treatment

Row | Compound | IC50 (PC-3 cells) [µM] | IC50 (PNT2 cells; Homo sapiens, PNT2, 48 h) [µM] | SI [IC50(PNT2) / IC50(PC-3)] (PC-3 cells) | other results
1 | CCc1c(O)c2c(c(O)c1Cl)C(=O)C(OC[C@H]1OC(O)[C@H](O)[C@@H](O)[C@@H]1O)=CC2=O (stereo partly drawn) [Compound 24] | > 100 | > 100 |  | 
2 | COC1=CC(=O)c2c(O)c(Cl)c(Cl)c(O)c2C1=O [Compound 25] | 2.3 | 1.22 | 0.53 | 
3 | CCc1c(O)c2c(c(O)c1OC)C(=O)C(OCC(O)C1OC3OC(C)(C)OC3C1O)=CC2=O (stereo not drawn) [Compound 19] | 27.9 | 41.7 | 1.49 | 
4 | CCc1c(O)c2c(c(O)c1Cl)C(=O)C(OC)=CC2=O [Compound 21] | 31.6 | 27.4 | 0.87 | 
5 | COC1=CC(=O)c2c(O)ccc(O)c2C1=O [Compound 13] | 5.38 | 9.84 | 1.83 | 
6 | CC1(C)OC2OC3C(COC4=CC(=O)c5ccccc5C4=O)OC(C)(C)OC3C2O1 (stereo not drawn) [Compound 2] | 13.1 | 16.2 | 1.24 | 
7 | O=C1C(OC[C@H]2OC(O)[C@H](O)[C@@H](O)[C@@H]2O)=CC(=O)c2c(O)cccc21 (stereo partly drawn) [Compound 8] |  | 79.3 |  | IC50 (PNT2 cells): 73.7 µM; IC50 (MRC-9 cells): 31.6 µM; IC50 (RWPE-1 cells): 49.8 µM; IC50 (HEK293 cells): 40 µM; IC50 (HUVEC cells): 73 µM; IC50 (VCaP cells): 56.7 µM; IC50 (DU145 cells): 10.6 µM; IC50 (22Rv1 cells [1]; [5]): 30.1 µM; IC50 (22Rv1 cells [1]; [6]): 92.4 µM; IC50 (LNCaP cells): 20 µM; IC50 (22Rv1 cells [2]): 19.4 µM; cancer cell colony formation (22Rv1 cells [3]): suppress cancer cell colony formation; AR-FL and AR-V7 expression (22Rv1 cells [4]): downregulated both, AR full length (AR-FL) and AR-V7; LC3B-II and SQSTM1 levels (autophagy markers) (22Rv1 cells [4]): accumulation of both, LC3B-II and SQSTM1
8 | CC1(C)OC2OC(C(O)COC3=CC(=O)c4c(O)c(Cl)c(Cl)c(O)c4C3=O)C(O)C2O1 (stereo not drawn) [Compound 27] | 3.47 | 4.47 | 1.29 | 
9 | O=C1C=C(OC[C@H]2OC(O)[C@H](O)[C@@H](O)[C@@H]2O)C(=O)c2c(O)c(Cl)c(Cl)c(O)c21 (stereo partly drawn) [Compound 28] | > 100 | > 100 |  | 
10 | CC1(C)OC2OC3C(COC4=CC(=O)c5c(O)cccc5C4=O)OC(C)(C)OC3C2O1 (stereo not drawn) [Compound 6] | 4.51 | 4.12 | 0.91 | 
11 | CCc1c(O)c2c(c(O)c1OC)C(=O)C(OC[C@H]1OC(O)[C@H](O)[C@@H](O)[C@@H]1O)=CC2=O (stereo partly drawn) [Compound 20] | 99 | 27.9 | 0.28 | 
12 | O=C1C=C(OC[C@H]2OC(O)[C@H](O)[C@@H](O)[C@@H]2O)C(=O)c2c(O)cccc21 (stereo partly drawn) [Compound 12] |  | 103 |  | IC50 (MRC-9 cells): 153 µM; IC50 (RWPE-1 cells): 48 µM; IC50 (HEK293 cells): 69.4 µM; IC50 (HUVEC cells): 45.7 µM; IC50 (VCaP cells): 57.5 µM; IC50 (DU145 cells): 37.1 µM; IC50 (22Rv1 cells [1]; [5]): 23.4 µM; IC50 (22Rv1 cells [1]; [6]): 94.9 µM; IC50 (LNCaP cells): 24 µM; IC50 (22Rv1 cells [2]): 14.6 µM; cancer cell colony formation (22Rv1 cells [3]): suppress cancer cell colony formation; AR-FL and AR-V7 expression (22Rv1 cells [4]): downregulated both, AR full length (AR-FL) and AR-V7; LC3B-II and SQSTM1 levels (autophagy markers) (22Rv1 cells [4]): accumulation of both, LC3B-II and SQSTM1
13 | COC1=CC(=O)c2ccccc2C1=O [Compound 1] | 9.33 | 14.5 | 1.55 | 
